One experiment deals with T1, Enolase (Giardia duodenalis, UniProt E2RTS6).
T1 construct: gene GL50803_0011118; native protein in trophozoites, 445 aa
T1 sequence (E2RTS6 1-445): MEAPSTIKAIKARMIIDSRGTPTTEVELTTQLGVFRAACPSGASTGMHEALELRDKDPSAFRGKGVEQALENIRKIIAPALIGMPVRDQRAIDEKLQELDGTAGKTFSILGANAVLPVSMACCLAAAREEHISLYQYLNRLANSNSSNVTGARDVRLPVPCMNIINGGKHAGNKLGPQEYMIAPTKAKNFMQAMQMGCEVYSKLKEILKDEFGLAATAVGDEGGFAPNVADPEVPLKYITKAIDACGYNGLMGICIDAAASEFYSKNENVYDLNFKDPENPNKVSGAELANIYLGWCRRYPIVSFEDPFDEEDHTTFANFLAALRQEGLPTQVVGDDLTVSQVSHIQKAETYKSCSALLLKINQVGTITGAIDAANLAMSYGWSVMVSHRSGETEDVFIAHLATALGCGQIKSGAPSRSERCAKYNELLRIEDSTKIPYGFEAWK
The experiment can be described thus: click biotinylation, streptavidin pull-down from treated trophozoites, LC-MS/MS and immunoblot. In kind it is cell-based. The settings on record: covalent; prodrug reduced in the cells; 100 uM, 2 h. Background: A western blot detects proteins with antibodies after separation by electrophoresis.

Another experiment addresses T2, Arginine deiminase (ADI) (Giardia duodenalis, UniProt E2RU36).
T2 construct: gene GL50803_00112103; full-length 580 aa, C-terminal His tag (pETite C-His), E. coli BL21-CodonPlus(DE3)-RIL
Description: colorimetric citrulline-detection assay of recombinant His-tagged ADI. Type of experiment: biochemical. The conditions noted are these: 500 uM Mz-alkyne + 1 mM dithionite (reductive activation of prodrug), 2 h; 1 mM arginine, Hepes pH 7.0, 37 C; covalent.

Experiment [1] has as its target T3, Ornithine carbamoyltransferase (OCT) (Giardia duodenalis, UniProt E2RTT6).
T3 construct: gene GL50803_0010311; native protein in trophozoites, 327 aa
T3 sequence (E2RTT6 1-327): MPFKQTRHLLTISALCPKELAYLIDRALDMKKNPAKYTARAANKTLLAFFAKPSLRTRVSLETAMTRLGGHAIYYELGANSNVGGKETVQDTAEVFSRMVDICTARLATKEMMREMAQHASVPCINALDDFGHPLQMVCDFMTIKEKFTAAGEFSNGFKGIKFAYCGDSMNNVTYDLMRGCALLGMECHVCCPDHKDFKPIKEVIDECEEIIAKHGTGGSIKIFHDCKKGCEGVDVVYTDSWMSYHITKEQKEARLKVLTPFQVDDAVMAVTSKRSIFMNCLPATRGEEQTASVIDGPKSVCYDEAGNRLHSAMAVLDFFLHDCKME
The experiment can be described thus: click biotinylation, streptavidin pull-down from treated trophozoites, LC-MS/MS and immunoblot. In kind it is cell-based. The settings on record: covalent; prodrug reduced in the cells; 100 uM, 2 h.

Drawing on article PMC7190177, “Click chemistry-facilitated comprehensive identification of proteins adducted by antimicrobial 5-nitroimidazoles for discovery of alternative drug targets against giardiasis” (PLoS Neglected Tropical Diseases, 2020), this text covers adduct and inhibition for one molecule.

T2 sequence (E2RU36 entry or part of it): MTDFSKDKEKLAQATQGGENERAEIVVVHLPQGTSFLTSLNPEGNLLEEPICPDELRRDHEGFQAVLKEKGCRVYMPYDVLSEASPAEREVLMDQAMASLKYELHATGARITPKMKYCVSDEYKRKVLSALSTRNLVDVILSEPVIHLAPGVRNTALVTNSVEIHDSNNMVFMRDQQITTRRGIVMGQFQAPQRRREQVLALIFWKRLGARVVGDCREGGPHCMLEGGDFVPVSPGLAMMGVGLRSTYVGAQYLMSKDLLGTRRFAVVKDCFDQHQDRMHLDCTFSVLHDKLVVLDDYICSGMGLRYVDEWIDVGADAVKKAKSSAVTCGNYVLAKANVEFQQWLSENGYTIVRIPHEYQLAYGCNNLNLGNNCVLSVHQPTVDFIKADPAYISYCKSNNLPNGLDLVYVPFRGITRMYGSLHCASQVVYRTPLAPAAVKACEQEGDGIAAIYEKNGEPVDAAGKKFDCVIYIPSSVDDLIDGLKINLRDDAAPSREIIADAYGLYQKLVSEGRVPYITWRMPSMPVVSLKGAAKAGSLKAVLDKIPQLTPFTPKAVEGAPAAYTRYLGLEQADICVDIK

On to `C#CCCn1c([N+](=O)[O-])cnc1C` [Mz-alkyne, 1-(But-3-ynyl)-2-methyl-5-nitro-1H-imidazole], for which the adduct entry on Enolase is “these proteins were labeled with biotin and thus adducted by Mz-alkyne”; in experiment [1] it was “these proteins were labeled with biotin and thus adducted by Mz-alkyne”. Further, the inhibition result at Arginine deiminase (ADI) is “Wild-type ADI was significantly inhibited by activated Mz-alkyne under cell-free conditions”.
